Test results as given in patent US9579314B2 (priority 2015, dated 2017).

Legend:
Human β2 adrenoceptor = Human β2 adrenoceptor (Homo sapiens, UniProt P07550); settings: read-out: B2 binding affinity
Human M3 receptor = Human M3 receptor (Homo sapiens, UniProt P20309); settings: read-out: M3 binding affinity
Human M3 receptor, sequence (P20309 whole entry): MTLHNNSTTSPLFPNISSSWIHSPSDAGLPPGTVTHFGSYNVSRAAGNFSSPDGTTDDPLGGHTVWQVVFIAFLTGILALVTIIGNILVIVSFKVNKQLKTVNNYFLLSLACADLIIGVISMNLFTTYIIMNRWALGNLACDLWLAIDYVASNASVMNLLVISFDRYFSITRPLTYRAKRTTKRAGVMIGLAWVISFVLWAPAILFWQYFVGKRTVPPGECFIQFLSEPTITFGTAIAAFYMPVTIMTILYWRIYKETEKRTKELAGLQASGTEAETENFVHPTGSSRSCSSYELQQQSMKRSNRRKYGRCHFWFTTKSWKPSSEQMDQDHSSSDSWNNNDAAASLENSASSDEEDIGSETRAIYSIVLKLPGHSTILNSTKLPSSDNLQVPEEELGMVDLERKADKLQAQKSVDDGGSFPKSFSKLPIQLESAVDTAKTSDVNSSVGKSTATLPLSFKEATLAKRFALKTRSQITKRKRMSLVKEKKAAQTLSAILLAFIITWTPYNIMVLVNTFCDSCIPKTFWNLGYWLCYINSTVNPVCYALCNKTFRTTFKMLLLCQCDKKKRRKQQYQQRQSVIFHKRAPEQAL

Human β2 adrenoceptor, sequence (P07550 whole entry): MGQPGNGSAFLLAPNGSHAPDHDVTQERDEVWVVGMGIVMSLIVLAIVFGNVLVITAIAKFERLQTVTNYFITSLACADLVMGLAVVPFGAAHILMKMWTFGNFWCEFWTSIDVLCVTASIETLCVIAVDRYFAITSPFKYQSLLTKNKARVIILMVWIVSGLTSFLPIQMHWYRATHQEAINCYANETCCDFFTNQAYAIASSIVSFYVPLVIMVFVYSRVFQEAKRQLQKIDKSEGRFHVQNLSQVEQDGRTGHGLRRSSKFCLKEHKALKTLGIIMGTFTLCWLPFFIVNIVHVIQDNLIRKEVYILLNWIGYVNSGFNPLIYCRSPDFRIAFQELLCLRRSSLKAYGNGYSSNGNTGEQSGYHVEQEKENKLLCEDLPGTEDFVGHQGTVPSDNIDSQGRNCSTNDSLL

O=C(COc1cccc([C@](O)(C(=O)OCC2CCN(Cc3ccccc3)CC2)c2ccccc2)c1)N[C@H]1CC[C@H](NC(=O)c2ccc(CNC[C@H](O)c3ccc(O)c4[nH]c(=O)ccc34)cc2)CC1 [Compound 62, (1-benzylpiperidin-4-yl)methyl (S)-2-hydroxy-2-(3-(2-(((1R,4S)-4-(4-((((R)-2-hydroxy-2-(8-hydroxy-2-oxo-1,2-dihydroquinolin-5-yl)ethyl)amino)methyl)benzamido)cyclohexyl)amino)-2-oxoethoxy)phenyl)-2-phenylacetate]
IC50 (Human β2 adrenoceptor): < 0.3 nM | IC50 (Human M3 receptor): < 0.3 nM

O=C(COc1cccc([C@](O)(C(=O)OCC2CCN(Cc3ccccc3)CC2)c2ccccc2)c1)N[C@H]1C[C@H](NC(=O)c2ccc(CNC[C@H](O)c3ccc(O)c4[nH]c(=O)ccc34)cc2)C1 [Compound 63, (1-benzylpiperidin-4-yl)methyl (S)-2-hydroxy-2-(3-(2-(((1R,3S)-3-(4-((((R)-2-hydroxy-2-(8-hydroxy-2-oxo-1,2-dihydroquinolin-5-yl)ethyl)amino)methyl)benzamido)cyclobutyl)amino)-2-oxoethoxy)phenyl)-2-phenylacetate]
IC50 (Human β2 adrenoceptor): < 0.3 nM | IC50 (Human M3 receptor): < 0.3 nM

O=C(COc1cccc([C@](O)(C(=O)OCC2CCN(Cc3ccccc3)CC2)c2ccccc2)c1)N1CCC2(CC1)CCN(C(=O)c1ccc(CNC[C@H](O)c3ccc(O)c4[nH]c(=O)ccc34)cc1)CC2 [Compound 64, (1-benzylpiperidin-4-yl)methyl (S)-2-hydroxy-2-(3-(2-(9-(4-((((R)-2-hydroxy-2-(8-hydroxy-2-oxo-1,2-dihydroquinolin-5-yl)ethyl)amino)methyl)benzoyl)-3,9-diazaspiro[5.5]undecan-3-yl)-2-oxoethoxy)phenyl)-2-phenylacetate]
IC50 (Human β2 adrenoceptor): 0.3 to 3 nM | IC50 (Human M3 receptor): < 0.3 nM

O=C(COc1cccc([C@](O)(C(=O)OCC2CCN(Cc3ccccc3)CC2)c2ccccc2)c1)NC1CCN(C(=O)c2ccc(CNC[C@H](O)c3ccc(O)c4[nH]c(=O)ccc34)cc2)CC1 [Compound 65, (1-benzylpiperidin-4-yl)methyl (S)-2-hydroxy-2-(3-(2-((1-(4-((((R)-2-hydroxy-2-(8-hydroxy-2-oxo-1,2-dihydroquinolin-5-yl)ethyl)amino)methyl)benzoyl)piperidin-4-yl)amino)-2-oxoethoxy)phenyl)-2-phenylacetate]
IC50 (Human β2 adrenoceptor): 0.3 to 3 nM | IC50 (Human M3 receptor): < 0.3 nM

O=C(COc1cccc([C@](O)(C(=O)OCC2CCN(Cc3ccccc3)CC2)c2ccccc2)c1)NC1CN(C(=O)c2ccc(CNC[C@H](O)c3ccc(O)c4[nH]c(=O)ccc34)cc2)C1 [Compound 66, (1-benzylpiperidin-4-yl)methyl (S)-2-hydroxy-2-(3-(2-((1-(4-((((R)-2-hydroxy-2-(8-hydroxy-2-oxo-1,2-dihydroquinolin-5-yl)ethyl)amino)methyl)benzoyl)azetidin-3-yl)amino)-2-oxoethoxy)phenyl)-2-phenylacetate]
IC50 (Human β2 adrenoceptor): < 0.3 nM | IC50 (Human M3 receptor): 0.3 to 3 nM

O=C(NC1CN(C(=O)COc2cccc([C@](O)(C(=O)OCC3CCN(Cc4ccccc4)CC3)c3ccccc3)c2)C1)c1ccc(CNC[C@H](O)c2ccc(O)c3[nH]c(=O)ccc23)cc1 [Compound 67, (1-benzylpiperidin-4-yl)methyl (S)-2-hydroxy-2-(3-(2-(3-(4-((((R)-2-hydroxy-2-(8-hydroxy-2-oxo-1,2-dihydroquinolin-5-yl)ethyl)amino)methyl)benzamido)azetidin-1-yl)-2-oxoethoxy)phenyl)-2-phenylacetate]
IC50 (Human β2 adrenoceptor): < 0.3 nM | IC50 (Human M3 receptor): < 0.3 nM

O=C(COc1cccc([C@](O)(C(=O)OCC2CCN(Cc3ccccc3)CC2)c2ccccc2)c1)N[C@@H]1CCN(C(=O)c2ccc(CNC[C@H](O)c3ccc(O)c4[nH]c(=O)ccc34)cc2)C1 [Compound 68, (1-benzylpiperidin-4-yl)methyl (S)-2-hydroxy-2-(3-(2-(((R)-1-(4-((((R)-2-hydroxy-2-(8-hydroxy-2-oxo-1,2-dihydroquinolin-5-yl)ethyl)amino)methyl)benzoyl)pyrrolidin-3-yl)amino)-2-oxoethoxy)phenyl)-2-phenylacetate]
IC50 (Human β2 adrenoceptor): 0.3 to 3 nM | IC50 (Human M3 receptor): 0.3 to 3 nM

O=C(COc1cccc([C@](O)(C(=O)OCC2CCN(Cc3ccccc3)CC2)c2ccccc2)c1)N[C@H]1CCCN(C(=O)c2ccc(CNC[C@H](O)c3ccc(O)c4[nH]c(=O)ccc34)cc2)C1 [Compound 69, (1-benzylpiperidin-4-yl)methyl (S)-2-hydroxy-2-(3-(2-(((S)-1-(4-((((R)-2-hydroxy-2-(8-hydroxy-2-oxo-1,2-dihydroquinolin-5-yl)ethyl)amino)methyl)benzoyl)piperidin-3-yl)amino)-2-oxoethoxy)phenyl)-2-phenylacetate]
IC50 (Human β2 adrenoceptor): 0.3 to 3 nM | IC50 (Human M3 receptor): 0.3 to 3 nM

O=C(COc1cccc([C@](O)(C(=O)OCC2CCN(Cc3ccccc3)CC2)c2ccccc2)c1)N[C@H]1CCN(C(=O)c2ccc(CNC[C@H](O)c3ccc(O)c4[nH]c(=O)ccc34)cc2)C1 [Compound 70, (1-benzylpiperidin-4-yl)methyl (S)-2-hydroxy-2-(3-(2-(((S)-1-(4-((((R)-2-hydroxy-2-(8-hydroxy-2-oxo-1,2-dihydroquinolin-5-yl)ethyl)amino)methyl)benzoyl)pyrrolidin-3-yl)amino)-2-oxoethoxy)phenyl)-2-phenylacetate]
IC50 (Human β2 adrenoceptor): 0.3 to 3 nM | IC50 (Human M3 receptor): 0.3 to 3 nM

O=C(COc1cccc([C@](O)(C(=O)OCC2CCN(Cc3ccccc3)CC2)c2ccccc2)c1)N[C@@H]1CCCN(C(=O)c2ccc(CNC[C@H](O)c3ccc(O)c4[nH]c(=O)ccc34)cc2)C1 [Compound 71, (1-benzylpiperidin-4-yl)methyl (S)-2-hydroxy-2-(3-(2-(((R)-1-(4-((((R)-2-hydroxy-2-(8-hydroxy-2-oxo-1,2-dihydroquinolin-5-yl)ethyl)amino)methyl)benzoyl)piperidin-3-yl)amino)-2-oxoethoxy)phenyl)-2-phenylacetate]
IC50 (Human β2 adrenoceptor): > 3 nM | IC50 (Human M3 receptor): 0.3 to 3 nM

O=C(N[C@H]1CCCN(C(=O)COc2cccc([C@](O)(C(=O)OCC3CCN(Cc4ccccc4)CC3)c3ccccc3)c2)C1)c1ccc(CNC[C@H](O)c2ccc(O)c3[nH]c(=O)ccc23)cc1 [Compound 72, (1-benzylpiperidin-4-yl)methyl (S)-2-hydroxy-2-(3-(2-((S)-3-(4-((((R)-2-hydroxy-2-(8-hydroxy-2-oxo-1,2-dihydroquinolin-5-yl)ethyl)amino)methyl)benzamido)piperidin-1-yl)-2-oxoethoxy)phenyl)-2-phenylacetate]
IC50 (Human β2 adrenoceptor): > 3 nM | IC50 (Human M3 receptor): 0.3 to 3 nM

O=C(N[C@H]1CCN(C(=O)COc2cccc([C@](O)(C(=O)OCC3CCN(Cc4ccccc4)CC3)c3ccccc3)c2)C1)c1ccc(CNC[C@H](O)c2ccc(O)c3[nH]c(=O)ccc23)cc1 [Compound 73, (1-benzylpiperidin-4-yl)methyl (S)-2-hydroxy-2-(3-(2-((S)-3-(4-((((R)-2-hydroxy-2-(8-hydroxy-2-oxo-1,2-dihydroquinolin-5-yl)ethyl)amino)methyl)benzamido)pyrrolidin-1-yl)-2-oxoethoxy)phenyl)-2-phenylacetate]
IC50 (Human β2 adrenoceptor): < 0.3 nM | IC50 (Human M3 receptor): 0.3 to 3 nM
